From US20110070232A1, “Combination Therapy with an Antitumor Alkaloid” (Pharma Mar, S.A., priority 2008, published 2011)
Read-outs that look alike come from different tables or passages of the source.

What was measured:
Hs746T tumors = type: in vivo, mice
Text: Female athymic nude mice (Harlan Sprague Dawley, Madison, Wis.) were utilized for all experiments. Animals were housed in ventilated rack caging with food and water ad libitum. The mice were acclimated for at least 5 days prior to tumor implantation with a tumor cell suspension.
The tumor model used in these studies was Hs746T cell line, which was obtained from the ATCC (Manassas, Va.).
Treatments were initiated on DPI 15.
5-FU was provided as a solution which was further diluted with water for injection.
(§1) Tumor size measurements were recorded twice weekly from the treatment initiation until the termination of the study.
(§2) Mean, standard deviation and standard error of the mean were determined for tumor volume for all animal groups at all assessments. Student's t test was performed on tumor volumes at each measurement day, including at the end of the study, to determine whether there were any statistically significant differences between combination treatment groups and single monotherapy treatment groups.

[1] = system: BT-474 (breast cancer) cell line; assay: IC50 determination, MIT (tetrazolium) assay, 72 h (Example 18); type: cell-based; conditions: Homo sapiens, BT-474, 72 h
Description: BT-474 cells were grown in RPMI supplemented with 1% ITS (insulin, transferrin and selenium), 10% Fetal Bovine Serum (FBS), 1% penicillin/streptomycin and 2 mM L-glutamine.
Before plating, cell cultures were trypsinized and cell number estimated using an automated flow cytometer.
Cells were harvested and seeded in 96 well microtiter plates at the appropriate cell density (5,000-10,000 cells) in 150 μL of media and incubated for 24 hours to allow the cells to attach before drug addition.
After the incubation period (72 hours), 50 μL of MIT solution was added to each microtiter well and incubated for further 8 hours at 37° C. The culture medium was then removed and 50 μl, of DMSO were added to dissolve the MIT crystals. Optical densities were read at 540 nm on spectrophotometer microplate reader.
IC50 values were calculated from an average of two to four assays for each of the test agents.

[2] = system: BxPC-3 human pancreatic carcinoma cell line; assay: IC50 determination, MTS assay, 72 h (Example 3); type: cell-based; conditions: 72 hours of drug exposure
Description: (§3) Gemcitabine (Gemzar®) was the agent evaluated in combination with PM00104. The human pancreatic carcinoma cell lines selected for this assay were the following: BxPC-3, PANC-1, MIA PaCA-2, and SW1990 cell lines. BxPC-3 cell line was grown in RPMI 1640 medium supplemented with 10% FBS, 1.5 g/L sodium bicarbonate, 4.5 g/L glucose, 10 mM HEPES, 1 mM sodium pyruvate, and 2 mM L-glutamine. PANC-1 cell line was grown in DMEM supplemented with 10% FBS, 1.5 g/L sodium bicarbonate, 4.5 g/L glucose, and 4 mM L-glutamine. MIA PaCA-2 cell line was grown in DMEM supplemented with 10% FBS, 1.5 g/L sodium bicarbonate, 4.5 g/L glucose, 2.5% Horse Serum, and 2 mM L-glutamine. SW1990 cell line was grown in RPMI 1640 medium supplemented with 10% FBS and 2 mM L-glutamine.
(§4) a. […] It was used the same methodology as those disclosed in Example 1.
(§5) IC50 values were calculated from an average of three assays for each of the test agents.

[3] = system: SW1990 human pancreatic carcinoma cell line; assay: IC50 determination, MTS assay, 72 h (Example 3); type: cell-based; conditions: 72 hours of drug exposure
Description: as §3, §4, §5

[4] = system: MIA PaCA-2 human pancreatic carcinoma cell line; assay: IC50 determination, MTS assay, 72 h (Example 3); type: cell-based; conditions: 72 hours of drug exposure
Description: as §3, §4, §5

[5] = system: PANC-1 human pancreatic carcinoma cell line; assay: IC50 determination, MTS assay, 72 h (Example 3); type: cell-based; conditions: 72 hours of drug exposure
Description: as §3, §4, §5

MRI-H-254 tumors = type: in vivo, mice; conditions: doxorubicin 6 IP
Description: Female athymic nude mice (Harlan Sprague Dawley, Madison, Wis.) were utilized for all experiments. Animals were housed in ventilated rack caging with food and water ad libitum. The mice were acclimated for at least 5 days prior to tumor implantation with tumor fragments. The Vehicle Control group contained 11 mice, groups 2-6 contained 8 mice/group, and the rest of groups contained 9 mice/group.
This cell line was grown and implanted to the animals as described in Example 11.
Tumor measurements were determined as disclosed in Example 4. […] Treatments were initiated on DPI 17.
PM00104 was provided in the form of vials of lyophilized PM00104 powder which was reconstituted with water for injection.
as §1, §2
The definition and criteria for the evaluation of potentiation and the degree of additivity for the combination therapy were the same as those disclose in Example 4.

[6] = PM00104 0.9, 5-FU 50 (DPI 15) then 100 (DPI 22 & 29), irinotecan 20, doxorubicin 6 mg/kg/day
[7] = PM00104 0.23 IV, paclitaxel 12.5 IP mg/kg/day (G4, G11, G12)
[8] = PM00104 0.45 IV, paclitaxel 12.5 IP mg/kg/day (G3, G9, G10)

COc1c(C)cc2c(c1O)[C@@H]1[C@@H]3Cc4c(OC(C)=O)c(C)c5c(c4[C@H](CNC(=O)/C=C/c4cccc(C(F)(F)F)c4)N3[C@@H](O)[C@H](C2)N1C)OCO5 [PM00104]
% T/C on day 15 (Hs746T tumors; [6]): 106.6%
% T/C on day 19 (Hs746T tumors; [6]): 55.8%
% T/C on day 22 (Hs746T tumors; [6]): 60.9%
% T/C on day 26 (Hs746T tumors; [6]): 54.2%
% T/C on day 29 (Hs746T tumors; [6]): 58.6%
% T/C on day 33 (Hs746T tumors; [6]): 80.8%
% Inhibition (Hs746T tumors; day 15, PM00104 0.9 and doxorubicin 6 mg/kg/day): −6.6%
% Inhibition (Hs746T tumors; day 15, PM00104 0.9 and irinotecan 20 mg/kg/day): −6.6%
% Inhibition (Hs746T tumors; day 15, mg/kg/day: PM00104 0.90 IV, 5-FU 50 at DPI 15 and 100 at DPI 22 & 29 IP): −6.6%
% Inhibition (Hs746T tumors; day 19, PM00104 0.9 and doxorubicin 6 mg/kg/day): 44.2%
% Inhibition (Hs746T tumors; day 19, PM00104 0.9 and irinotecan 20 mg/kg/day): 44.2%
% Inhibition (Hs746T tumors; day 19, mg/kg/day: PM00104 0.90 IV, 5-FU 50 at DPI 15 and 100 at DPI 22 & 29 IP): 44.2%
% Inhibition (Hs746T tumors; day 22, PM00104 0.9 and doxorubicin 6 mg/kg/day): 39.1%
% Inhibition (Hs746T tumors; day 22, PM00104 0.9 and irinotecan 20 mg/kg/day): 39.1%
% Inhibition (Hs746T tumors; day 22, mg/kg/day: PM00104 0.90 IV, 5-FU 50 at DPI 15 and 100 at DPI 22 & 29 IP): 39.1%
% Inhibition (Hs746T tumors; day 26, PM00104 0.9 and doxorubicin 6 mg/kg/day): 45.8%
% Inhibition (Hs746T tumors; day 26, PM00104 0.9 and irinotecan 20 mg/kg/day): 45.8%
% Inhibition (Hs746T tumors; day 26, mg/kg/day: PM00104 0.90 IV, 5-FU 50 at DPI 15 and 100 at DPI 22 & 29 IP): 45.8%
% Inhibition (Hs746T tumors; day 29, PM00104 0.9 and doxorubicin 6 mg/kg/day): 41.4%
% Inhibition (Hs746T tumors; day 29, PM00104 0.9 and irinotecan 20 mg/kg/day): 41.4%
% Inhibition (Hs746T tumors; day 29, mg/kg/day: PM00104 0.90 IV, 5-FU 50 at DPI 15 and 100 at DPI 22 & 29 IP): 41.4%
% Inhibition (Hs746T tumors; day 33, PM00104 0.9 and doxorubicin 6 mg/kg/day): 19.2%
% Inhibition (Hs746T tumors; day 33, PM00104 0.9 and irinotecan 20 mg/kg/day): 19.2%
% Inhibition (Hs746T tumors; day 33, mg/kg/day: PM00104 0.90 IV, 5-FU 50 at DPI 15 and 100 at DPI 22 & 29 IP): 19.2%
IC50 [1]: 1 nM
IC50 [2]: 0.036 mg/L
IC50 [3]: 0.0051 mg/L
IC50 [4]: 0.093 mg/L
IC50 [5]: 0.015 mg/L
% T/C on day 17 (MRI-H-254 tumors; [7]): 97.5%
% T/C on day 20 (MRI-H-254 tumors; [7]): 113.0%
% T/C on day 24 (MRI-H-254 tumors; [7]): 89.9%
% T/C on day 27 (MRI-H-254 tumors; [7]): 75.9%
% T/C on day 32 (MRI-H-254 tumors; [7]): 72.7%
% T/C on day 35 (MRI-H-254 tumors; [7]): 62.4%
% T/C on day 39 (MRI-H-254 tumors; [7]): 57.6%
% T/C on day 47 (MRI-H-254 tumors; [7]): 66.8%
% T/C on day 17 (MRI-H-254 tumors; [8]): 100.0%
% T/C on day 20 (MRI-H-254 tumors; [8]): 109.2%
% T/C on day 24 (MRI-H-254 tumors; [8]): 91.3%
% T/C on day 27 (MRI-H-254 tumors; [8]): 71.0%
% T/C on day 32 (MRI-H-254 tumors; [8]): 51.8%
